Test results as given in US9434739B2, “Systemic insecticide” (priority 2007, dated 2016).

Tests used:
Rhopalosiphum padi [1] = experiment: Root soaking with single agent and admixture on wheat against Rhopalosiphum padi (Test Example 9); type: in vivo; conditions: for Preventive value: six days after release
Method: The root of wheat seedlings 48 hr after seeding was soaked for 72 hr in an admixture solution, adjusted to a predetermined concentration, as a 10% aqueous acetone solution. 72 hrs after the treatment, 10 larval Rhopalosiphum padi for each seedling were released on the seedlings. Thereafter, the seedlings were allowed to stand in a thermostatic chamber of 25° C. The number of parasites on stems and leaves was observed six days after the release. The density index of each of the treated plots was determined by presuming the density of the non-treated plots to be 100, and the preventive value was calculated by the same equation as in Test Example 8.
(§1) When the density index exceeded 100, the preventive value was regarded as 0 (zero).
(§2) Theoretical value=A+B−(A×B)/100 Colby's formula
(§3) where A: preventive value when treatment was performed only with compound 4, and
B: preventive value when treatment was performed only with each of acetamiprid, acephate, and imidacloprid.
When the preventive value against Rhopalosiphum padi for the admixture in Table 12 exceeded the theoretical value calculated by the Colby's formula shown in Table 13, the admixture was determined to have a synergistic effect.

Laodelphax stratella = experiment: Soil drenching treatment test on rice seedlings against Laodelphax stratella (Test Example 6); type: in vivo; conditions: soil drenching of rice pot, 0.5 mg/seedling, second instar larvae, 3 days after release
Method: (§4) Rice seedlings grown in a pot were provided. Soil in the pot was drenched with a test solution adjusted to a predetermined concentration with a 10% aqueous acetone solution. After standing for three days, 10 larvae at the second instar were released on the rice seedlings. Thereafter, the pot was allowed to stand in a thermostatic chamber of 25° C. (light period 16 hr-dark period 8 hr). 3 days after the release, the number of survived larvae was measured, and the mortality of larvae was calculated by the same equation as in the Reference Test. The test was duplicated.

[2] = system: Trialeurodes uaporariorum; experiment: Soil drenching treatment test on cucumber against Trialeurodes uaporariorum (Test Example 5); type: in vivo; conditions: soil drenching of cucumber pot, 0.5 mg/seedling, larvae, 9 days after drenching
Method: Adults of Trialeurodes uaporariorum were released on cucumber seedlings, grown in a pot, for egg laying purposes for two days. 10 days after the start of egg laying, it was confirmed that larvae were hatched from the delivered eggs. The soil in the cucumber pot was drenched with 5 mL of a test solution adjusted to a predetermined concentration with a 10% aqueous acetone solution. The cucumber pot was allowed to stand in a thermostatic chamber of 25° C. (light period 16 hr-dark period 8 hr). 9 days after the drenching, the number of survived larvae was measured, and the mortality of larvae was calculated by the following equation. The test was duplicated. Mortality (%)={(number of larvae before treatment−number of survived larvae)/number of larvae before treatment}×100

Myzus persicae Sulzer = experiment: Reference Test: cabbage leaf disk spraying treatment against Myzus persicae Sulzer; type: in vivo; conditions: 20 ppm test solution spread over cabbage leaf disk, first instar larvae, three days after release, 25° C.
Source text: A leaf disk having a diameter of 2.8 cm was cut out from a cabbage grown in a pot and was placed in a 5.0 cm-Schale. Four adult aphids of Myzus persicae Sulzer were released in the Schale. One day after the release of the adult aphids, the adult aphids were removed. The number of larvae at the first instar born in the leaf disk was adjusted to 10, and 20 ppm of a test solution which had been prepared as a 50% aqueous acetone solution (0.05% Tween 20 added) was spread over the cabbage leaf disk. The cabbage leaf disk was then air dried. Thereafter, the Schale was lidded and was allowed to stand in a thermostatic chamber of 25° C. […] Mortality (%)={number of dead larvae/(number of survived larvae+number of dead larvae)}×100

Nephotettix cincticeps = experiment: Soil drenching treatment test on rice seedlings against Nephotettix cincticeps (Test Example 7); type: in vivo; conditions: soil drenching of rice pot, 1.0 mg/seedling, second instar larvae, 3 days after release
Method: as §4, with “seedling.” for “seedlings.”

Rhopalosiphum padi [3] = experiment: Root soaking treatment test on wheat seedlings against Rhopalosiphum padi (Test Example 3 and Comparative Tests); type: in vivo; conditions: wheat seedling root soaked 72 hr in test solution (100 ppm), 20 μg/seedling, 25° C.
Method: The root of wheat seedlings 48 hr after seeding was soaked for 72 hr in a test solution (100 ppm) prepared as a 10% aqueous acetone solution. 72 hrs after the treatment, 10 larval Rhopalosiphum padi were released for each seedling. Thereafter, the seedlings were allowed to stand in a thermostatic chamber of 25° C. The number of parasites on stems and leaves was observed six days after the release, and the density index was calculated by the same equation as in Test Example 1. The test was duplicated.
For compounds 8 and 9 described in Table 6, a insecticidal effect against Rhopalosiphum padi was examined in the same manner as in Test Example 3.

Aphis gossypii = experiment: Soil drenching with single agent and admixture on cucumber against Aphis gossypii (Test Example 8); type: in vivo; conditions: for Preventive value: 2 days after release
Method: Cucumber seedlings were treated by soil drenching with a single agent and an admixture adjusted to a predetermined concentration with water. The chemical was absorbed through the root for two days, and four adults of Aphis gossypii for each seedling were released on the seedlings. Thereafter, the seedlings were allowed to stand in a thermostatic chamber of 25° C. 2 days after the release, the number of parasites on the leaves was observed. The density index in each treated plot was determined by presuming the density in the non-treated plot to be 100. The preventive value was calculated by the following equation. Preventive value=100−density index
as §1, §2, §3
B: preventive value when treatment was performed only with each of acephate and imidacloprid.
When the numerical value for the admixture in Table 10 exceeded the theoretical value calculated by the Colby's formula shown in Table 11, the admixture was determined to have a synergistic effect.

Helicoverpa armiger = conditions: described in WO 2004/060065 and Applied and Environmental Microbiology (1995), 61(12), 4429-35; cited from earlier work
Plutella xylostella = conditions: described in WO 2004/060065 and Applied and Environmental Microbiology (1995), 61(12), 4429-35; cited from earlier work
Tenebrio molitor = conditions: described in WO 2004/060065 and Applied and Environmental Microbiology (1995), 61(12), 4429-35; cited from earlier work
[4] = Compound 4 0 μg/seedling, acetamiprid 0.0078, acephate 0.5, imidacloprid 0.0078 μg/seedling
[5] = Compound 4 0 μg/seedling, other insecticide alone (acetamiprid 0.0078, acephate 0.5, imidacloprid 0.0078 μg/seedling)
[6] = Compound 4 0.5 μg/seedling, alone (—) or with acetamiprid 0.0078, acephate 0.5 or imidacloprid 0.0078 μg/seedling
[7] = Compound 4 0.05 mg/seedling, alone (—) or with acephate 0.1 mg/seedling or imidacloprid 0.005 mg/seedling
[8] = Compound 4 0 mg/seedling, acephate 0.1 mg/seedling, imidacloprid 0.005 mg/seedling
[9] = Compound 4 0 mg/seedling, other insecticide alone (acephate 0.1 mg/seedling, imidacloprid 0.005 mg/seedling)

## C/C(=N\C#N)N(C)Cc1ccc(Cl)nc1 [Acetamiprid, acetamiprid]
Rhopalosiphum padi [1]; [4]
  Theoretical value calculated by Colby's formula: 5.9
Rhopalosiphum padi [1]; [5]
  Preventive value: 5.9

## CC1(COC(=O)C2CC2)C2C[C@H](O)[C@@]3(C)Oc4cc(-c5cccnc5)oc(=O)c4[C@H](O)C3[C@@]2(C)CC[C@@H]1OC(=O)C1CC1 (some centres unmarked) [Compound 4]
Laodelphax stratella
  Mortality (%): 34%
[2]
  Mortality (%): 67%
Myzus persicae Sulzer
  Mortality: 100%
Rhopalosiphum padi [1]; [6]
  Theoretical value calculated by Colby's formula: 0
  Preventive value: 0
Nephotettix cincticeps
  Mortality (%): 60%
Rhopalosiphum padi [3]
  Density index 6 days after release: 5
Aphis gossypii; [7]
  Theoretical value calculated by Colby's formula: 0
  Preventive value: 0

## pyripyropene A
Helicoverpa armiger
  insecticidal effect: has insecticidal effect
Plutella xylostella
  insecticidal effect: has insecticidal effect
Tenebrio molitor
  insecticidal effect: has insecticidal effect

## O=[N+]([O-])NC1=NCCN1Cc1ccc(Cl)nc1 [Imidacloprid, imidacloprid]
Rhopalosiphum padi [1]; [4]
  Theoretical value calculated by Colby's formula: 28.6
Rhopalosiphum padi [1]; [5]
  Preventive value: 28.6
Aphis gossypii; [8]
  Theoretical value calculated by Colby's formula: 16
Aphis gossypii; [9]
  Preventive value: 16

## COP(=O)(NC(C)=O)SC (centres unmarked) [Acephate, acephate]
Rhopalosiphum padi [1]; [4]
  Theoretical value calculated by Colby's formula: 55.6
Rhopalosiphum padi [1]; [5]
  Preventive value: 55.6
Aphis gossypii; [8]
  Theoretical value calculated by Colby's formula: 70
Aphis gossypii; [9]
  Preventive value: 70

## CC1(COC(=O)C2CC2)C2CC(=O)[C@@]3(C)Oc4cc(-c5cccnc5)oc(=O)c4[C@H](O)C3[C@@]2(C)CC[C@@H]1OC(=O)C1CC1 (some centres unmarked) [Compound 6]
Myzus persicae Sulzer
  Mortality: 100%
Rhopalosiphum padi [3]
  Density index 6 days after release: 0

## CC1(COC(=O)C2CC2)C2CC[C@@]3(C)Oc4cc(-c5cccnc5)oc(=O)c4[C@H](O)C3[C@@]2(C)CC[C@@H]1OC(=O)C1CC1 (some centres unmarked) [Compound 7]
Myzus persicae Sulzer
  Mortality: 100%
Rhopalosiphum padi [3]
  Density index 6 days after release: 41
